Legend:
TF(v-SRC) cells = test: Annexin V-FITC binding by flow cytometry, TF(v-SRC) cells; type: cell-based; conditions: 1 μM, varying times
Protocol: FIG. 3 illustrates the induction of apoptosis and cell death as assessed using Annexin V-FITC binding together with propidium iodide (PI) staining. FFMA-AML and TF(vSRC) cells were exposed to 1 μM 3-Cl-AHPC or compound 16. A) Apoptosis in FFMA-AML and TF(vSRC) cells following 24 and 48 h ARR exposure, respectively. The plots show the distribution of classes of fluorescence intensity versus cell number. The bottom left quadrant represents live cells (both annexin V-FITC and PI negative); the bottom right quadrant represents early apoptotic cells (annexin V-FITC positive but PI negative); and the top right quadrant represents late apoptotic cells (both annexin V-FITC and PI positive). B) Percentage of early apopotic Annexin V-positive cells at the indicated times. […] (p values of <0.05, <0.01 and <0.001 respectively, as determined by the t test).
Apoptosis of cells was determined by (1) acridine orange and ethidium bromide-staining to assess cells with nuclear fragmentation and chromatin condensation as previously described (Farhana L. et al., Cancer Res. 2006; 65:4909-4917) and (2) flow cytometry assessing Annexin V-FITC binding together with propidium iodide staining (Annexin V-FITC apoptosis Detection kit 1, BD Biosciences, San Diego, Calif.). Data acquisition was done on a FACS Calibur flow cytometer (BD) and analyzed with CellQuest software. […]

FFMA-AML cells = test: Test D: inhibition of FFMA-AML growth in NOD-SCID mice (survival); type: in vivo
Protocol: FIG. 6 illustrates 3-Cl-AHPC and compound 16 inhibition of FFMA-AML cell proliferation in NOD-SCID mice and prolongation of their survival. A) Sixteen NOD-SCID mice, which had been randomized into two groups of eight each, were injected through the tail vein with 1×10^6 FFMA-AML cells. Intravenous injection of vehicle or 3-Cl-AHPC (30 mg/kg) twice daily for 4 days was instituted 24 h later. B) An identical study was performed with the exception that 3-Cl-AHPC was administered interperitoneally. C) Twenty four NOD-SCID mice were randomized into three groups of eight. […] The mice were monitored for toxicity and survival.
Non-obese diabetic-severe combined immunodeficiency (NOD-SCID) and ICR-SCID mice were obtained from Jackson Laboratories (Bar Harbor, Me.) and Taconic Farms (Germantown, N.Y.), respectively. A) FFMA-AML and TF(v-SRC) systemic models: NOD-SCID and ICR-SCID mice (4 to 5 weeks old) were injected with either FFMA-AML or TF(v-SRC) cells intravenously. Treatment with either vehicle, 3-Cl-AHPC or compound 16 (the compound of Example 1) was instituted the following day. Once symptoms such as diarrhea, dehydration, weight loss, ascites, paralysis or general weakness became evident, mice were euthanized. B) TF(v-SRC) subcutaneous mouse model. ICR-SCID mice were trocared subcutaneously bilaterally with TF(v-SRC) tumor fragments. Animals with equal tumor weights determined as described previously (Zhang Y. et al., Blood. 2002; 100:2917-2925) were assigned to three experimental arms: 1) control (vehicle treated), 2) subcutaneously treated with compound 16, and 3) intravenously treated with compound 16. The percent increase in the host life-span (% ILS) of the FFMA-AML and TF(v-SRC) bearing mice was calculated by subtracting the […] divided by the median day of death of the AML-bearing vehicle treated mice. In order to determine the efficacy of the 3-Cl-AHPC and compound 16, survival distribution of the 3-Cl-AHPC or compound 16-treated (T) or vehicle (C) groups were compared using the log-rank test. Survival was characterized as the duration of the animal's life span 24 h after the initiation of the xenograft until an observed event (euthanasia or death). A p-value of less than 5% (p<0.05) was considered statistically significant.
The ability of 3-Cl-AHPC and compound 16 to inhibit the growth of FFMA-AML cells in NOD-SCID mice was determined. NOD-SCID mice randomly assigned to two groups of eight mice each were injected with 1 million cells through the tail vein. The mice then received either vehicle or 3-Cl-AHPC (30 mg/kg) given intravenously twice daily for 4 days. […]

Capan-2 cells = test: Test I: growth inhibition of Capan-2 cells (MTT); type: cell-based; conditions: 1 μM
Protocol: (§1) Pancreatic cancer cell lines (COLO357, PANC-1, Capan-2, AsPc-1 cells and MiaPaCa-2 cells obtained from American Type Culture Collection; ATCC, Rockville, Md.) were treated with 1 μM 3-Cl-AHPC and compound 16 for various times. Apoptosis in cells were analyzed by flow cytometry using Annexin V-FITC binding together with propidium iodide (PI) staining (Annexin V-FITC apoptosis Detection Kit 1, BD Biosciences, San Diego, Calif.). Data acquisition was done on a FACS Calibur flow cytometer (BD) and analyzed with CellQuest software (BD Biosciences). 3-Cl-AHPC and compound 16 mediated inhibition of cell growth were determined by 3-(4,5-dimethylthiazol-2-yl)-2,5-diphenyltetrazolium bromide (MTT) assay. The cells were seeded on 96-well plates at a density of 4×10^4 cells/well in a volume of 200 μl culture medium. 1 μM AHP3 and 3-Cl-AHPC in DMSO (final concentration 0.1%) were added to the cells for various times. […] After discarding the medium, MTT precipitates were solubilized with 200 μl DMSO and the plates read on a BioTeK Synergy HT (BioTeK Instrument Inc., Vermont) at an absorbance 570 nm. […] The spheroids were stained with acridine orange/ethidium bromide staining and immediately visualized and photographed with fluorescence microscope (OLYMPUS CKX41). […] Then spheroids were visualized and photographed with a fluorescence microscope.

PANC-1 cells = test: Test I: apoptosis of PANC-1 pancreatic cancer cells (Annexin V-FITC/PI); type: cell-based; conditions: 1 μM, 48 h
Protocol: as §1

MiaPaCa-2 cells = test: Test I: growth inhibition of MiaPaCa-2 cells (MTT); type: cell-based; conditions: 1 μM
Protocol: as §1

AsPc-1 cells = test: Test I: apoptosis of AsPc-1 pancreatic cancer cells (Annexin V-FITC/PI); type: cell-based; conditions: 1 μM, 72 h
Protocol: as §1

COLO357 cells = test: Test I: apoptosis of COLO357 pancreatic cancer cells (Annexin V-FITC/PI); type: cell-based; conditions: 1 μM, 48 h
Protocol: as §1

Row | Compound | annexin V-FITC-positive cells (TF(v-SRC) cells) | increase in the length of survival over vehicle (FFMA-AML cells; 30 mg/kg intravenously twice daily for 4 days, p value 0.0001) | toxicity in treated mice (FFMA-AML cells; 3-Cl-AHPC 30 mg/kg twice daily for 4 days) | inhibition of growth (Capan-2 cells) | cells in which induction of apoptosis was noted (PANC-1 cells) | inhibition of growth (MiaPaCa-2 cells) | induction of apoptosis (AsPc-1 cells) | cells in which induction of apoptosis was noted (COLO357 cells) | increase in survival (ILS) (FFMA-AML cells; 5.0 mg/kg or 7.5 mg/kg twice a day for 4 days, tail vein, p=0.0002) | toxicity in treated mice (FFMA-AML cells; compound 16 5.0 or 7.5 mg/kg twice a day)
1 | O=C(O)C=Cc1ccc(-c2ccc(O)c(C34CC5CC(CC(C5)C3)C4)c2)c(Cl)c1 [Compound 3-Cl-AHPC, 4-[3-(1-adamantyl)-4-hydroxyphenyl]-3-chlorocinnamic acid, reference compound] | progressive increase in annexin V-FITC-positive cells with time | 25% | toxicity including weight loss and decreased physical activity | significant inhibition of growth | 50% | significant inhibition of growth | Apoptosis was also noted | 80% |  | 
2 | O=C(O)/C=C/c1cnc(-c2ccc(O)c(C34CC5CC(CC(C5)C3)C4)c2)nc1 [Compound 16, (E)-3-[2-(3-(1-Adamantyl)-4-hydroxyphenyl)-5-pyrimidinyl]-2-propenoic acid] | progressive increase in annexin V-FITC-positive cells with time |  |  | significant inhibition of growth | 50% | significant inhibition of growth | Apoptosis was also noted | 80% | 26% | extremely well tolerated and no toxicity was noted

— patent publication US9096544B2, “Therapeutic compounds” (Wayne State University, priority 2009, dated 2015)
